Experimental data from patent publication EP3046573B1, “AMYLIN ANALOGUES” (Zealand Pharma A/S, priority 2013, dated 2015).
Numbered stars: 1 amine (or outer) side, 2 acyl side, 3 side chain; on linkers, the order of the positions; unused ones are H or OH. Bridge positions count the residues as written; N and C are the ends. Square brackets hold non-standard residues; d marks the D form. Peptide text beside a SMILES is read from it. * marks the point of attachment. C20 diacid = O=C(O)CCCCCCCCCCCCCCCCCCC(=O)*; γGlu = O=C(O)[C@H](CCC(=O)[*:2])N[*:1]; NMeI = CC[C@H](C)[C@H](NC)C(=O)O; Sar = CNCC(=O)O

Key:
[1] = target: T1, human calcitonin receptor (hCTR2) (Homo sapiens, UniProt P30988); assay: hCTR2 assay: induction of cAMP (AlphaScreen cAMP Assay kit) in COS7 cells expressing hCTR2; assay type: cell-based; details: cAMP induction in COS7 cells expressing hCTR2; average of a minimum of 3 determinations; read-out: hCTR2 EC50
T1 construct: expressed in transfected cells
T1 sequence (P30988 25-474): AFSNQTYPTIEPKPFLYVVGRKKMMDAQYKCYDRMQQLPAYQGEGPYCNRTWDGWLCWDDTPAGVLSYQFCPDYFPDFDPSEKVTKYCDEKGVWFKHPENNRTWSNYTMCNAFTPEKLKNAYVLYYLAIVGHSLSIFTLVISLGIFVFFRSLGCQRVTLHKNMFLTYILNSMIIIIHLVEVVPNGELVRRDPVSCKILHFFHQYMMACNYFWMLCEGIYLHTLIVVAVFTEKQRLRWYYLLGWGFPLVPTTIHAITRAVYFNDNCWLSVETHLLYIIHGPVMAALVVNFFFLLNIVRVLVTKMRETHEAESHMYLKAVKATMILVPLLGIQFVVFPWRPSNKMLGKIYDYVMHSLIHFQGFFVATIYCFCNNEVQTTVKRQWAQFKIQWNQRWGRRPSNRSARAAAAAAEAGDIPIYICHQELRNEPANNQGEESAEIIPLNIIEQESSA
How it was run: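 COS7 stable hCTR2 clone (RAMP-free); peptide dose-response 15 min 37° C in Tyrode pH 7.4 + 100 µM IBMX + 0.1% casein; lysis 10 min RT; AlphaScreen cAMP; 4PL fit.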

[2] = Solubility assessment (turbidity absorbance at 325 nm); assay type: physicochemical; details: stock 2 mg/ml diluted 1:1, ambient temperature (typically 25°C), n=1; for Solubility, Acetate buffer pH 4: 100 mM acetate buffer pH 4.0; for Solubility, Acetate buffer pH 5: 100 mM acetate buffer pH 5.0; for Solubility, Histidine buffer pH 6: 100 mM histidine buffer pH 6.0; for Solubility, Histidine buffer pH 7: 100 mM histidine buffer pH 7.0; for Solubility, Phosphate buffer pH 6: 100 mM phosphate buffer pH 6.0; for Solubility, Phosphate buffer pH 7: 100 mM phosphate buffer pH 7.0; for Solubility, Phosphate buffer pH 7.5: 100 mM phosphate buffer pH7.5
How it was run: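 Peptide stock (2 mg/ml, water pH 2.5) diluted 1:1 into 100 mM acetate (pH 4.0, 5.0), histidine (pH 6.0, 7.0) or phosphate (pH 6.0–7.5) buffer; absorbance at 325 nm read at about 25°C, n=1. A325 ≤ 0.02 taken as solubility ≥ 1 mg/ml.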

Structure (SMILES) | EC50 [1] [nM] | Solubility, Acetate buffer pH 4 [2] | Solubility, Acetate buffer pH 5 [2] | Solubility, Histidine buffer pH 6 [2] | Solubility, Histidine buffer pH 7 [2] | Solubility, Phosphate buffer pH 6 [2] | Solubility, Phosphate buffer pH 7 [2] | Solubility, Phosphate buffer pH 7.5 [2]
CC[C@H](C)[C@@H](C(=O)N[C@@H](CC(C)C)C(=O)N[C@@H](CO)C(=O)N[C@@H](CO)C(=O)N[C@H](C(=O)N[C@@H](CC(=O)O)C(=O)N[C@H](C(=O)NCC(=O)N[C@@H](CO)C(=O)N[C@@H](CCC(=O)O)C(=O)N[C@H](C(=O)N1CCC[C@H]1C(N)=O)[C@@H](C)O)C(C)C)[C@@H](C)O)N(C)C(=O)[C@H](C)NC(=O)CN(C)C(=O)[C@H](Cc1ccccc1)NC(=O)[C@H](CO)NC(=O)[C@H](CO)NC(=O)[C@H](CO)NC(=O)[C@H](CO)NC(=O)[C@H](CCCNC(=N)N)NC(=O)[C@H](Cc1c[nH]cn1)NC(=O)[C@H](CC(C)C)NC(=O)[C@H](Cc1ccccc1)NC(=O)[C@H](CCC(=O)O)NC(=O)[C@H](C)NC(=O)[C@H](CC(C)C)NC(=O)[C@H](CCCNC(=N)N)NC(=O)[C@H](CCC(N)=O)NC(=O)[C@@H](NC(=O)[C@H](C)NC(=O)[C@@H]1CSSC[C@H](NC(=O)[C@H](CCCNC(=N)N)NC(=O)CC[C@H](NC(=O)CCCCCCCCCCCCCCCCCCC(=O)O)C(=O)O)C(=O)N[C@@H](CC(N)=O)C(=O)N[C@@H]([C@@H](C)O)C(=O)N[C@@H](C)C(=O)N[C@@H]([C@@H](C)O)C(=O)N1)[C@@H](C)O [Compound 74, [19CD]-isoGlu-RC()NTATC()ATQRLAEFLHRSSSSF-Gly(Me)-A-Ile(Me)-LSSTDVGSETP-NH2] ({C20 diacid-γGlu}-RCNTATCATQRLAEFLHRSSSSF[Sar]A[NMeI]LSSTDVGSETP-NH2; disulfide 2-7) | 0.097 | SS (SS indicates solubility ≥ 1mg/ml) | SS (SS indicates solubility ≥ 1mg/ml) | SS (SS indicates solubility ≥ 1mg/ml) | SS (SS indicates solubility ≥ 1mg/ml) | SS (SS indicates solubility ≥ 1mg/ml) | SS (SS indicates solubility ≥ 1mg/ml) | SS (SS indicates solubility ≥ 1mg/ml)
CC[C@H](C)[C@@H](C(=O)N[C@@H](CC(C)C)C(=O)N[C@@H](CO)C(=O)N[C@@H](CO)C(=O)N[C@H](C(=O)N[C@@H](CC(=O)O)C(=O)N[C@H](C(=O)NCC(=O)N[C@@H](CO)C(=O)N[C@@H](CCC(=O)O)C(=O)N[C@H](C(=O)N1CCC[C@H]1C(N)=O)[C@@H](C)O)C(C)C)[C@@H](C)O)N(C)C(=O)CN(C)C(=O)[C@H](Cc1ccccc1)NC(=O)[C@H](CO)NC(=O)[C@H](CO)NC(=O)[C@H](CO)NC(=O)[C@H](CO)NC(=O)[C@H](CCCNC(=N)N)NC(=O)[C@H](Cc1c[nH]cn1)NC(=O)[C@H](CC(C)C)NC(=O)[C@H](Cc1ccccc1)NC(=O)[C@H](CCC(=O)O)NC(=O)[C@H](C)NC(=O)[C@H](CC(C)C)NC(=O)[C@H](CCCNC(=N)N)NC(=O)[C@H](CCC(N)=O)NC(=O)[C@@H](NC(=O)[C@H](C)NC(=O)[C@@H]1CSSC[C@H](NC(=O)[C@H](CCCNC(=N)N)NC(=O)CC[C@H](NC(=O)CCCCCCCCCCCCCCCCCCC(=O)O)C(=O)O)C(=O)N[C@@H](CC(N)=O)C(=O)N[C@@H]([C@@H](C)O)C(=O)N[C@@H](C)C(=O)N[C@@H]([C@@H](C)O)C(=O)N1)[C@@H](C)O [Compound 75, [19CD]-isoGlu-RC()NTATC()ATQRLAEFLHRSSSSF-Gly(Me)-Ile(Me)-LSSTDVGSETP-NH2] ({C20 diacid-γGlu}-RCNTATCATQRLAEFLHRSSSSF[Sar][NMeI]LSSTDVGSETP-NH2; disulfide 2-7) | 0.11 | SS (SS indicates solubility ≥ 1mg/ml) | II (II indicates solubility ≤ 1 mg/ml) | II (II indicates solubility ≤ 1 mg/ml) | SS (SS indicates solubility ≥ 1mg/ml) | SS (SS indicates solubility ≥ 1mg/ml) | SS (SS indicates solubility ≥ 1mg/ml) | SS (SS indicates solubility ≥ 1mg/ml)
CC[C@H](C)[C@@H](C(=O)N[C@@H](CC(C)C)C(=O)N[C@@H](CO)C(=O)N[C@@H](CO)C(=O)N[C@H](C(=O)N[C@@H](CCC(=O)O)C(=O)N[C@H](C(=O)NCC(=O)N[C@@H](CO)C(=O)N[C@@H](CC(=O)O)C(=O)N[C@H](C(=O)N1CCC[C@H]1C(N)=O)[C@@H](C)O)C(C)C)[C@@H](C)O)N(C)C(=O)[C@H](C)NC(=O)CN(C)C(=O)[C@H](Cc1ccccc1)NC(=O)[C@H](CO)NC(=O)[C@H](CO)NC(=O)[C@H](CCCNC(=N)N)NC(=O)[C@H](Cc1c[nH]cn1)NC(=O)[C@H](CC(C)C)NC(=O)[C@H](Cc1ccccc1)NC(=O)[C@H](CCC(=O)O)NC(=O)[C@H](C)NC(=O)[C@H](CC(C)C)NC(=O)[C@H](CCCNC(=N)N)NC(=O)[C@H](CCC(N)=O)NC(=O)[C@@H](NC(=O)[C@H](C)NC(=O)[C@@H]1CSSC[C@H](NC(=O)[C@H](CCCNC(=N)N)NC(=O)CC[C@H](NC(=O)CCCCCCCCCCCCCCCCCCC(=O)O)C(=O)O)C(=O)N[C@@H](CC(N)=O)C(=O)N[C@@H]([C@@H](C)O)C(=O)N[C@@H](C)C(=O)N[C@@H]([C@@H](C)O)C(=O)N1)[C@@H](C)O [Compound 78, [19CD]-isoGlu-RC()NTATC()ATQRLAEFLHRSSF-Gly(Me)-A-Ile(Me)-LSSTEVGSDTP-NH2] ({C20 diacid-γGlu}-RCNTATCATQRLAEFLHRSSF[Sar]A[NMeI]LSSTEVGSDTP-NH2; disulfide 2-7) | 0.07 | SS (SS indicates solubility ≥ 1mg/ml) | SS (SS indicates solubility ≥ 1mg/ml) | SS (SS indicates solubility ≥ 1mg/ml) | SS (SS indicates solubility ≥ 1mg/ml) | SS (SS indicates solubility ≥ 1mg/ml) | SS (SS indicates solubility ≥ 1mg/ml) | SS (SS indicates solubility ≥ 1mg/ml)
CC[C@H](C)[C@@H](C(=O)N[C@@H](CC(C)C)C(=O)N[C@@H](CO)C(=O)N[C@@H](CO)C(=O)N[C@H](C(=O)N[C@@H](CCC(=O)O)C(=O)N[C@H](C(=O)NCC(=O)N[C@@H](CO)C(=O)N[C@@H](CC(=O)O)C(=O)N[C@H](C(=O)N1CCC[C@H]1C(N)=O)[C@@H](C)O)C(C)C)[C@@H](C)O)N(C)C(=O)CN(C)C(=O)[C@H](Cc1ccccc1)NC(=O)[C@H](CO)NC(=O)[C@H](CO)NC(=O)[C@H](CCCNC(=N)N)NC(=O)[C@H](Cc1c[nH]cn1)NC(=O)[C@H](CC(C)C)NC(=O)[C@H](Cc1ccccc1)NC(=O)[C@H](CCC(=O)O)NC(=O)[C@H](C)NC(=O)[C@H](CC(C)C)NC(=O)[C@H](CCCNC(=N)N)NC(=O)[C@H](CCC(N)=O)NC(=O)[C@@H](NC(=O)[C@H](C)NC(=O)[C@@H]1CSSC[C@H](NC(=O)[C@H](CCCNC(=N)N)NC(=O)CC[C@H](NC(=O)CCCCCCCCCCCCCCCCCCC(=O)O)C(=O)O)C(=O)N[C@@H](CC(N)=O)C(=O)N[C@@H]([C@@H](C)O)C(=O)N[C@@H](C)C(=O)N[C@@H]([C@@H](C)O)C(=O)N1)[C@@H](C)O [Compound 79, [19CD]-isoGlu-RC()NTATC()ATQRLAEFLHRSSF-Gly(Me)-Ile(Me)-LSSTEVGSDTP-NH2] ({C20 diacid-γGlu}-RCNTATCATQRLAEFLHRSSF[Sar][NMeI]LSSTEVGSDTP-NH2; disulfide 2-7) | 0.1 | SS (SS indicates solubility ≥ 1mg/ml) | SS (SS indicates solubility ≥ 1mg/ml) | SS (SS indicates solubility ≥ 1mg/ml) | SS (SS indicates solubility ≥ 1mg/ml) | SS (SS indicates solubility ≥ 1mg/ml) | SS (SS indicates solubility ≥ 1mg/ml) | SS (SS indicates solubility ≥ 1mg/ml)
